According to ChEMBL document CHEMBL3244064, “Conformational effects on the activity of drugs. 7. Synthesis and pharmacological properties of 2-(p-nitrophenyl)-substituted morpholines” (J Med Chem, 1979):
Calls of active or inactive are those of the source. No cut-off for these calls is given here.

Assays:
Format in all cases: protein assay
[1] = target: T1, Adrenergic receptor alpha (Rattus norvegicus) (UniProt P15823+P23944+P43140+P22086+P19328+P22909); assay: Stimulation of alpha-adrenergic receptor in ICEM:CER SPF Caw rat vas deferens assessed as muscle contraction after 2 to 3 mins relative to INPEA
[2] = target: T1, Adrenergic receptor alpha (Rattus norvegicus); assay: Stimulation of alpha-adrenergic receptor in ICEM:CER SPF Caw rat vas deferens assessed as muscle contraction after 2 to 3 mins in presence of alpha-adrenoceptor blocker dihydroergotamine
[3] = target: T1, Adrenergic receptor alpha (Rattus norvegicus); assay: Stimulation of alpha-adrenergic receptor in ICEM:CER SPF Caw rat vas deferens assessed as potentiation of norepinephrine response at 50 uM after 2 to 3 mins
[4] = target: T1, Adrenergic receptor alpha (Rattus norvegicus); assay: Stimulation of alpha-adrenergic receptor in ICEM:CER SPF Caw rat vas deferens assessed as muscle contraction after 2 to 3 mins relative to norepinephrine
[5] = target: T1, Adrenergic receptor alpha (Rattus norvegicus); assay: Stimulation of alpha-adrenergic receptor in reserpine-pretreated ICEM:CER SPF Caw rat vas deferens assessed as muscle contraction after 2 to 3 mins

What does the source list for `NCC(O)c1ccc([N+](=O)[O-])cc1` (stereo not drawn)?
Ratio [1]: 1.66; Activity [2]: inactive; Activity [3]: 179%; Ratio [4]: 0.0075

With `CNCC(O)c1ccc([N+](=O)[O-])cc1` (stereo not drawn) as the compound, how does the Ratio [1] read?
Its Ratio is 1.04.

What about the Activity [2] of the same compound?
Its Activity is “inactive”.

What about the Activity [3] of the same compound?
The Activity was 253%.

What about the Ratio [4] of the same compound?
Its Ratio is 0.0047.

Which Ratio [1] does the source give for `CN1CCOC(c2ccc([N+](=O)[O-])cc2)C1` (stereo not drawn) here?
The Ratio was 0.31.

What about the Activity [2] of the same compound?
The Activity was “inactive”.

What about the Activity [3] of the same compound?
The Activity was 192%.

What about the Ratio [4] of the same compound?
The Ratio was 0.0014.

How did the Ratio [1] turn out when `CC(C)(C)NCC(O)c1ccc([N+](=O)[O-])cc1` (stereo not drawn) was run?
The Ratio was 0.27.

And the Activity [2]?
The Activity was “inactive”.

What about the Activity [3] of the same compound?
The Activity was 127%.

What about the Ratio [4] of the same compound?
Its Ratio is 0.0012.

Which results are given for `O=[N+]([O-])c1ccc(C2CNCCO2)cc1` (stereo not drawn)?
Ratio [1]: 1.4; Activity [2]: inactive; Activity [3]: 203%; Ratio [4]: 0.0063

What does the source list for `CC(C)N1CCOC(c2ccc([N+](=O)[O-])cc2)C1` (stereo not drawn)?
Activity [5]: Active; Ratio [1]: 1; Activity [2]: inactive; Activity [3]: 223%; Ratio [4]: 0.0045

How did the Ratio [1] turn out when `CC(C)(C)N1CCOC(c2ccc([N+](=O)[O-])cc2)C1` (stereo not drawn) was run?
Its Ratio is 0.64.

And the Activity [2]?
The Activity was “inactive”.

And the Activity [3]?
The Activity was 169%.

What about the Ratio [4] of the same compound?
The Ratio was 0.0029.

How did the Activity [5] turn out when `CC(C)NCC(O)c1ccc([N+](=O)[O-])cc1` (stereo not drawn) was run?
The Activity was “Active”.

And the Activity [2]?
The Activity was “inactive”.

And the Activity [3]?
The Activity was 209%.

And the Ratio [4]?
Its Ratio is 0.0045.
